Laboratory results as given in publication PMC11823630, “In vitro potentiation of tetracyclines in Pseudomonas aeruginosa by RW01, a new cyclic peptide” (Antimicrobial Agents and Chemotherapy, 2024).
In brackets after ≈: the same amount, converted by molar mass.

Assays:
[1] = test system: PAO1 mutant MIN8_1, nalD(R3C), pilM(Q62X); experiment: MIC, Sensititre custom plate; format: cell-based; conditions: Pseudomonas aeruginosa, PAO1, read-out: MIC, Sensititre
Protocol: (§1) Selection of resistant mutants was performed for minocycline with and without RW01 in three independent replicates for wild-type P. aeruginosa reference strain PAO1. Tubes containing Mueller-Hinton broth (MHB) were inoculated and incubated for 24 h at 37°C. Afterward, 1/100 dilution of each tube was incubated at 37°C in MHB to late-exponential growth phase, measured by spectrophotometry at OD600. […] A control plate without antibiotic was included as inoculum control. After overnight incubation, colony counting of each treatment was performed to analyze the generation of resistant population. The mutant prevention concentration (MPC) was defined as the lowest concentration of antibiotic yielding no growth of resistant mutants. Selected mutants were checked for susceptibility profiles by using a Sensititre custom plate (Thermo Fisher Scientific, Massachusetts, USA) for Gram-negative bacteria, following the manufacturer’s instructions.

[2] = test system: PAO1 mutant MIN4_RW01_1, pmrB(R429H); experiment: MIC, Sensititre custom plate; format: cell-based; conditions: Pseudomonas aeruginosa, PAO1, read-out: MIC, Sensititre
Protocol: as §1

[3] = test system: PAO1 mutant MIN2_RW01_2, pmrB(M292T); experiment: MIC, Sensititre custom plate; format: cell-based; conditions: Pseudomonas aeruginosa, PAO1, read-out: MIC, Sensititre
Protocol: as §1

[4] = test system: PAO1 mutant MIN1_RW01_3, pmrB(V215L); experiment: MIC, Sensititre custom plate; format: cell-based; conditions: Pseudomonas aeruginosa, PAO1, read-out: MIC, Sensititre
Protocol: as §1

[5] = test system: PAO1 mutant MIN8_3, pilZ(nt18InsT); experiment: MIC, Sensititre custom plate; format: cell-based; conditions: Pseudomonas aeruginosa, PAO1, read-out: MIC, Sensititre
Protocol: as §1

[6] = test system: PAO1 mutant MIN2_RW01_3, parS(V152A); experiment: MIC, Sensititre custom plate; format: cell-based; conditions: Pseudomonas aeruginosa, PAO1, read-out: MIC, Sensititre
Protocol: as §1

[7] = test system: PAO1 mutant MIN4_RW01_4, pmrB(Y98N); experiment: MIC, Sensititre custom plate; format: cell-based; conditions: Pseudomonas aeruginosa, PAO1, read-out: MIC, Sensititre
Protocol: as §1

[8] = test system: PAO1 mutant MIN8_2, pilZ(nt18InsT); experiment: MIC, Sensititre custom plate; format: cell-based; conditions: Pseudomonas aeruginosa, PAO1, read-out: MIC, Sensititre
Protocol: as §1

[9] = test system: PAO1 mutant MIN1_RW01_1, pmrB(Y98N); experiment: MIC, Sensititre custom plate; format: cell-based; conditions: Pseudomonas aeruginosa, PAO1, read-out: MIC, Sensititre
Protocol: as §1

[10] = test system: PAO1 mutant MIN16_3, nfxB(nt79∆14), pilB(N349K); experiment: MIC, Sensititre custom plate; format: cell-based; conditions: Pseudomonas aeruginosa, PAO1, read-out: MIC, Sensititre
Protocol: as §1

[11] = test system: PAO1 mutant MIN8_4, pilZ(nt18InsT); experiment: MIC, Sensititre custom plate; format: cell-based; conditions: Pseudomonas aeruginosa, PAO1, read-out: MIC, Sensititre
Protocol: as §1

[12] = test system: PAO1 mutant MIN2_RW01_4, pmrB(M292T); experiment: MIC, Sensititre custom plate; format: cell-based; conditions: Pseudomonas aeruginosa, PAO1, read-out: MIC, Sensititre
Protocol: as §1

[13] = test system: P. aeruginosa PAO1, WT; experiment: MIC, Sensititre custom plate; format: cell-based; conditions: Pseudomonas aeruginosa, PAO1, read-out: MIC, Sensititre
Protocol: as §1

[14] = test system: PAO1 mutant MIN16_1, nalD(T43P); experiment: MIC, Sensititre custom plate; format: cell-based; conditions: Pseudomonas aeruginosa, PAO1, read-out: MIC, Sensititre
Protocol: as §1

[15] = test system: PAO1 mutant MIN1_RW01_2, mexR(G58E), pilB(G326D), hutC(Y181X); experiment: MIC, Sensititre custom plate; format: cell-based; conditions: Pseudomonas aeruginosa, PAO1, read-out: MIC, Sensititre
Protocol: as §1

[16] = test system: PAO1 mutant MIN4_RW01_3, pmrB(M292T); experiment: MIC, Sensititre custom plate; format: cell-based; conditions: Pseudomonas aeruginosa, PAO1, read-out: MIC, Sensititre
Protocol: as §1

[17] = test system: PAO1 mutant MIN32_1, mexR(R63H), pilB(N349K), PA0646(V316G); experiment: MIC, Sensititre custom plate; format: cell-based; conditions: Pseudomonas aeruginosa, PAO1, read-out: MIC, Sensititre
Protocol: as §1

[18] = test system: PAO1 mutant MIN2_RW01_1, pmrB(V215L); experiment: MIC, Sensititre custom plate; format: cell-based; conditions: Pseudomonas aeruginosa, PAO1, read-out: MIC, Sensititre
Protocol: as §1

[19] = test system: PAO1 mutant MIN16_2, nalC(aa9∆4), pilQ(nt46∆1); experiment: MIC, Sensititre custom plate; format: cell-based; conditions: Pseudomonas aeruginosa, PAO1, read-out: MIC, Sensititre
Protocol: as §1

[20] = test system: PAO1 mutant MIN16_4, nalC(T50P), pilM(Q62X); experiment: MIC, Sensititre custom plate; format: cell-based; conditions: Pseudomonas aeruginosa, PAO1, read-out: MIC, Sensititre
Protocol: as §1

[21] = test system: PAO1 mutant MIN1_RW01_4, pmrB(F124L); experiment: microbe, parasite or virus in culture; format: cell-based; conditions: Pseudomonas aeruginosa, PAO1, read-out: MIC, Sensititre
Protocol: as §1

[22] = test system: PAO1 mutant MIN4_RW01_2, pmrB(F124S); experiment: microbe, parasite or virus in culture; format: cell-based; conditions: Pseudomonas aeruginosa, PAO1, read-out: MIC, Sensititre
Protocol: as §1

[23] = test system: P. aeruginosa 41B; experiment: MIC, CLSI broth microdilution in BD Phoenix AST Broth; format: cell-based, Pseudomonas aeruginosa; conditions: Pseudomonas aeruginosa; strain 41B; agent alone; 37°C, 18–22 h; three biological replicates
Protocol: (§2) MIC for RW01 was also tested.
(§3) FIC of RW01 (FICRW01)=MIC of RW01 in combination/MIC of RW01 alone,FIC of antibiotic (FICATB)=MIC of ATB in combination/MIC of ATB alone,FICI=FICRW01 +FICATB.
(§4) FICI was interpreted as follows: synergistic effect if FICI is ≤0.5; additive effect if 0.5 < FICI ≤ 1.0; indifferent effect if 1.0 < FICI ≤ 2.0; and finally, antagonistic effect if FICI is >2.0. The average FICI considering the antibiotic MIC (no growth in any of the replicates) at different concentrations of RW01 was calculated ([28]).

[24] = test system: P. aeruginosa PAOΔoprM; experiment: as above; format: cell-based, Pseudomonas aeruginosa; conditions: Pseudomonas aeruginosa
Protocol: as §2, §3, §4

[25] = test system: P. aeruginosa PAOUW∆oprF; experiment: as above; format: cell-based, Pseudomonas aeruginosa; conditions: Pseudomonas aeruginosa, strain PAOUWΔoprF; agent alone; 37°C, 18–22 h; three biological replicates
Protocol: as §2, §3, §4

[26] = test system: P. aeruginosa PAOUW; experiment: as above; format: cell-based, Pseudomonas aeruginosa; conditions: Pseudomonas aeruginosa, strain PAOUW; agent alone; 37°C, 18–22 h; three biological replicates; read-out: MIC
Protocol: as §2, §3, §4

[27] = test system: P. aeruginosa PAO1; experiment: as above; format: cell-based, Pseudomonas aeruginosa; conditions: Pseudomonas aeruginosa, PAO1, strain PAO1; agent alone; 37°C, 18–22 h; three biological replicates; read-out: MIC
Protocol: as §2, §3, §4

[28] = test system: P. aeruginosa PAOΔmexR; experiment: as above; format: cell-based, Pseudomonas aeruginosa; conditions: Pseudomonas aeruginosa
Protocol: as §2, §3, §4

[29] = test system: P. aeruginosa 125B; experiment: as above; format: cell-based, Pseudomonas aeruginosa; conditions: Pseudomonas aeruginosa; strain 125B; agent alone; 37°C, 18–22 h; three biological replicates
Protocol: as §2, §3, §4

[30] = test system: P. aeruginosa 41A; experiment: as above; format: cell-based, Pseudomonas aeruginosa; conditions: Pseudomonas aeruginosa; strain 41A; agent alone; 37°C, 18–22 h; three biological replicates
Protocol: as §2, §3, §4

[31] = test system: P. aeruginosa PAOΔmexZ; experiment: as above; format: cell-based, Pseudomonas aeruginosa; conditions: Pseudomonas aeruginosa, strain PAOΔmexZ; agent alone; 37°C, 18–22 h; three biological replicates
Protocol: as §2, §3, §4

[32] = test system: P. aeruginosa 125A; experiment: as above; format: cell-based, Pseudomonas aeruginosa; conditions: Pseudomonas aeruginosa; strain 125A; agent alone; 37°C, 18–22 h; three biological replicates
Protocol: as §2, §3, §4

Row | Compound | MIC [1] | MIC [2] | MIC [3] | MIC [4] | MIC [5] | MIC [6] | MIC [7] | MIC [8] | MIC [9] | MIC [10] | MIC [11] | MIC [12] | MIC [13] | MIC [14] | MIC [15] | MIC [16] | MIC [17] | MIC [18] | MIC [19] | MIC [20] | further results
1 | CC1(C)S[C@@H]2[C@H](NC(=O)[C@H](C(=O)O)c3ccsc3)C(=O)N2[C@H]1C(=O)O [TIC, ticarcillin] | 64 mg/L (≈ 166 µM) | 128 mg/L (≈ 333 µM) | 32 mg/L (≈ 83.2 µM) | 16 mg/L (≈ 41.6 µM) | 64 mg/L (≈ 166 µM) | 16 mg/L (≈ 41.6 µM) | 16 mg/L (≈ 41.6 µM) | 64 mg/L (≈ 166 µM) | 16 mg/L (≈ 41.6 µM) | 16 mg/L (≈ 41.6 µM) | 64 mg/L (≈ 166 µM) | 32 mg/L (≈ 83.2 µM) | 16 mg/L (≈ 41.6 µM) | 64 mg/L (≈ 166 µM) | 128 mg/L (≈ 333 µM) | 16 mg/L (≈ 41.6 µM) | 128 mg/L (≈ 333 µM) | 64 mg/L (≈ 166 µM) | 64 mg/L (≈ 166 µM) | 64 mg/L (≈ 166 µM) | MIC [21]: 16 mg/L (≈ 41.6 µM); MIC [22]: 16 mg/L (≈ 41.6 µM)
2 | CC(C)(O/N=C(\C(=O)N[C@@H]1C(=O)N2C(C(=O)[O-])=C(C[n+]3ccccc3)CS[C@H]12)c1csc(N)n1)C(=O)O [Ceftazidime, ceftazidime] | 4 mg/L (≈ 7.32 µM) | 4 mg/L (≈ 7.32 µM) | 2 mg/L (≈ 3.66 µM) | ≤ 1 mg/L | 4 mg/L (≈ 7.32 µM) | 2 mg/L (≈ 3.66 µM) | ≤ 1 mg/L | 4 mg/L (≈ 7.32 µM) | ≤ 1 mg/L | 2 mg/L (≈ 3.66 µM) | 4 mg/L (≈ 7.32 µM) | 2 mg/L (≈ 3.66 µM) | 1 to 2 mg/L (≈ 1.83 to 3.66 µM) | 4 mg/L (≈ 7.32 µM) | 4 mg/L (≈ 7.32 µM) | ≤ 1 mg/L | 4 mg/L (≈ 7.32 µM) | 2 mg/L (≈ 3.66 µM) | 4 mg/L (≈ 7.32 µM) | 4 mg/L (≈ 7.32 µM) | MIC [23]: 8 mg/L; MIC [24]: 2 mg/L; MIC [25]: 2 mg/L; MIC [26]: 2 mg/L; MIC [27]: 2 mg/L; MIC [28]: 4 mg/L; MIC [29]: 4 mg/L; MIC [30]: 4 mg/L; MIC [31]: 4 mg/L; MIC [32]: 8 mg/L; MIC [21]: 2 mg/L (≈ 3.66 µM); MIC [22]: ≤ 1 mg/L
